From patent US12552783B2, “Modulators of proteolysis and associated methods of use” (Arvinas Operations, Inc., priority 2018, dated 2026) come the findings set out here.

This assay addresses KRas (Homo sapiens, UniProt P01116, G12C). Nature of the assay: KRas degradation in NCI-H2030 cells by Western blot, normalized to GAPDH (data of Table 14). It is filed as cell-based. Set-up: host or cells: NCI-H2030. Particulars: for Percent Degradation at Indicated Concentration (μM): H2030; for Dmax: NCI-H2030. The method, boiled down:
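Degradation of endogenous homozygous G12C KRas is measured by immunoblot after serum starvation and compound exposure at three final concentrations (0.3, 1 and 3 μM). VHL-recruiting compounds are incubated 24 h and all others 72 h. Percent loss is calculated from GAPDH-normalized KRas relative to vehicle.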

`C=CC(=O)N1CCN(c2nc(NCCC(=O)N(C)CCOc3cc(-c4scnc4C)ccc3CNC(=O)[C@@H]3C[C@@H](O)CN3C(=O)[C@H](c3cc(C)no3)C(C)C)nc3c(F)c(-c4cc(O)cc5ccccc45)c(Cl)cc23)CC1` [compound 338, (2S,4R)-N-(2-(2-(3-((4-(4-acryloylpiperazin-1-yl)-6-chloro-8-fluoro-7-(3-hydroxynaphthalen-1-yl)quinazolin-2-yl)amino)-N-methylpropanamido)ethoxy)-4-(4-methylthiazol-5-yl)benzyl)-4-hydroxy-1-((S)-3-methyl-2-(3-methylisoxazol-5-yl)butanoyl)pyrrolidine-2-carboxamide] gave a Dmax of at most 35%. For the same molecule, the “Percent Degradation at Indicated Concentration (μM)” value (0.3 μM) was “C (Percent Degradation: C ≤ 35)”. For the same molecule, the “Percent Degradation at Indicated Concentration (μM)” value (1 μM) is recorded as “C (Percent Degradation: C ≤ 35)”. For the same molecule, the “Percent Degradation at Indicated Concentration (μM)” value (3 μM) is “C (Percent Degradation: C ≤ 35)”.
With `C=CC(=O)N1CCN(c2nc(NCCC(=O)N(C)CCOCCOc3cc(-c4scnc4C)ccc3CNC(=O)[C@@H]3C[C@@H](O)CN3C(=O)[C@@H](c3cc(C)no3)C(C)C)nc3c(F)c(-c4cc(O)cc5ccccc45)c(Cl)cc23)CC1` [compound 339], for the setting “H2030 cells, 0.3 μM”, the “Percent Degradation at Indicated Concentration (μM): 0.3” value (from here on “Percent Degradation … 0.3”) is on record as “C (C ≤ 35)”. The “Percent Degradation at Indicated Concentration (μM): 1” value (“Percent Degradation … 1” below) (H2030 cells, 1 μM) is on record as “C (C ≤ 35)”. In addition, the “Percent Degradation at Indicated Concentration (μM): 3” value (“Percent Degradation … (μM): 3” for short) (H2030 cells, 3 μM) is “C (C ≤ 35)”. Also, the Dmax (H2030 cells) was at most 35%.
Regarding `C=CC(=O)N1CCN(c2nc(NCCC(=O)N(C)CCOCCOc3cc(-c4scnc4C)ccc3CNC(=O)[C@@H]3C[C@@H](O)CN3C(=O)[C@H](c3cc(C)no3)C(C)C)nc3c(F)c(-c4cc(O)cc5ccccc45)c(Cl)cc23)CC1` [compound 340, (2S,4R)-N-(2-(2-(2-(3-((4-(4-acryloylpiperazin-1-yl)-6-chloro-8-fluoro-7-(3-hydroxynaphthalen-1-yl)quinazolin-2-yl)amino)-N-methylpropanamido)ethoxy)ethoxy)-4-(4-methylthiazol-5-yl)benzyl)-4-hydroxy-1-((S)-3-methyl-2-(3-methylisoxazol-5-yl)butanoyl)pyrrolidine-2-carboxamide], where the note is “H2030 cells, 0.3 μM”, the “Percent Degradation … 0.3” value was “C (C ≤ 35)”. The “Percent Degradation … 1” value (H2030 cells, 1 μM) is given as “C (C ≤ 35)”. The “Percent Degradation … (μM): 3” value (H2030 cells, 3 μM) is listed as “C (C ≤ 35)”. Further, the Dmax (H2030 cells) was at most 35%.
Molecule `C=CC(=O)N1CCN(c2nc(NCCC(=O)N(C)CCOCCOCCOc3cc(-c4scnc4C)ccc3CNC(=O)[C@@H]3C[C@@H](O)CN3C(=O)[C@@H](c3cc(C)no3)C(C)C)nc3c(F)c(-c4cc(O)cc5ccccc45)c(Cl)cc23)CC1` [compound 341, (2S,4R)-N-(2-(2-(2-(2-(3-((4-(4-acryloylpiperazin-1-yl)-6-chloro-8-fluoro-7-(3-hydroxynaphthalen-1-yl)quinazolin-2-yl)amino)-N-methylpropanamido)ethoxy)ethoxy)ethoxy)-4-(4-methylthiazol-5-yl)benzyl)-4-hydroxy-1-((R)-3-methyl-2-(3-methylisoxazol-5-yl)butanoyl)pyrrolidine-2-carboxamide] registered a maximal degradation (Dmax) of at most 35%. Also, the “Percent Degradation at Indicated Concentration (μM)” value (0.3 μM) was “C (Percent Degradation: C ≤ 35)”. Moreover, where the note is “1 μM”, the “Percent Degradation at Indicated Concentration (μM)” value is “C (Percent Degradation: C ≤ 35)”. The “Percent Degradation at Indicated Concentration (μM)” value (3 μM) is listed as “C (Percent Degradation: C ≤ 35)”.
As to `C=CC(=O)N1CCN(c2nc(NCCC(=O)N(C)CCOCCOCCOc3cc(-c4scnc4C)ccc3CNC(=O)[C@@H]3C[C@@H](O)CN3C(=O)[C@H](c3cc(C)no3)C(C)C)nc3c(F)c(-c4cc(O)cc5ccccc45)c(Cl)cc23)CC1` [compound 342, (2S,4R)-N-(2-(2-(2-(2-(3-((4-(4-acryloylpiperazin-1-yl)-6-chloro-8-fluoro-7-(3-hydroxynaphthalen-1-yl)quinazolin-2-yl)amino)-N-methylpropanamido)ethoxy)ethoxy)ethoxy)-4-(4-methylthiazol-5-yl)benzyl)-4-hydroxy-1-((S)-3-methyl-2-(3-methylisoxazol-5-yl)butanoyl)pyrrolidine-2-carboxamide], the greatest degradation seen (Dmax) is at most 35%. Besides, the “Percent Degradation at Indicated Concentration (μM)” value (0.3 μM) is “C (Percent Degradation: C ≤ 35)”. For the same molecule, the “Percent Degradation at Indicated Concentration (μM)” value (1 μM) was “C (Percent Degradation: C ≤ 35)”. Further, the “Percent Degradation at Indicated Concentration (μM)” value (3 μM) was “C (Percent Degradation: C ≤ 35)”.
Molecule `C=CC(=O)N1CCN(c2nc(NCCC(=O)N(C)CCOCCOCCOCCOc3cc(-c4scnc4C)ccc3CNC(=O)[C@@H]3C[C@@H](O)CN3C(=O)[C@@H](c3cc(C)no3)C(C)C)nc3c(F)c(-c4cc(O)cc5ccccc45)c(Cl)cc23)CC1` [compound 343, (2S,4R)-N-(2-((15-((4-(4-acryloylpiperazin-1-yl)-6-chloro-8-fluoro-7-(3-hydroxynaphthalen-1-yl)quinazolin-2-yl)amino)-12-methyl-13-oxo-3,6,9-trioxa-12-azapentadecyl)oxy)-4-(4-methylthiazol-5-yl)benzyl)-4-hydroxy-1-((R)-3-methyl-2-(3-methylisoxazol-5-yl)butanoyl)pyrrolidine-2-carboxamide] had a Dmax of at most 35%. Further, the “Percent Degradation at Indicated Concentration (μM)” value (0.3 μM) is given as “C (Percent Degradation: C ≤ 35)”. The “Percent Degradation at Indicated Concentration (μM)” value (1 μM) is reported as “C (Percent Degradation: C ≤ 35)”. For the same molecule, the “Percent Degradation at Indicated Concentration (μM)” value (3 μM) was “C (Percent Degradation: C ≤ 35)”.
The molecule `C=CC(=O)N1CCN(c2nc(NCCC(=O)N(C)CCOCCOCCOCCOc3cc(-c4scnc4C)ccc3CNC(=O)[C@@H]3C[C@@H](O)CN3C(=O)[C@H](c3cc(C)no3)C(C)C)nc3c(F)c(-c4cc(O)cc5ccccc45)c(Cl)cc23)CC1` [compound 344] registered a Dmax of at most 35%. Moreover, for the setting “0.3 μM”, the “Percent Degradation at Indicated Concentration (μM)” value is “C (Percent Degradation: C ≤ 35)”. Where the note is “1 μM”, the “Percent Degradation at Indicated Concentration (μM)” value is reported as “C (Percent Degradation: C ≤ 35)”. The “Percent Degradation at Indicated Concentration (μM)” value (3 μM) is on record as “C (Percent Degradation: C ≤ 35)”.
In the case of `C=CC(=O)N1CCN(c2nc(NCCC(=O)N(C)CCOCCOCCOCCOCCOc3cc(-c4scnc4C)ccc3CNC(=O)[C@@H]3C[C@@H](O)CN3C(=O)[C@@H](c3cc(C)no3)C(C)C)nc3c(F)c(-c4cc(O)cc5ccccc45)c(Cl)cc23)CC1` [compound 345, (2S,4R)-N-(2-((18-((4-(4-acryloylpiperazin-1-yl)-6-chloro-8-fluoro-7-(3-hydroxynaphthalen-1-yl)quinazolin-2-yl)amino)-15-methyl-16-oxo-3,6,9,12-tetraoxa-15-azaoctadecyl)oxy)-4-(4-methylthiazol-5-yl)benzyl)-4-hydroxy-1-((R)-3-methyl-2-(3-methylisoxazol-5-yl)butanoyl)pyrrolidine-2-carboxamide], the “Percent Degradation … 0.3” value (H2030 cells, 0.3 μM) is “C (C ≤ 35)”. The “Percent Degradation … 1” value (H2030 cells, 1 μM) is given as “C (C ≤ 35)”. For the same molecule, the “Percent Degradation … (μM): 3” value (H2030 cells, 3 μM) is “C (C ≤ 35)”. For the setting “H2030 cells”, this molecule showed a maximal degradation (Dmax) of at most 35%.

The Dmax is the greatest extent of degradation seen. The low end stands for a partial loss of target, the high end for a fuller loss of target.
